According to ChEMBL document CHEMBL4219171, “Synthesis and investigations into the anticancer and antibacterial activity studies of β-carboline chalcones and their bromide salts” (Bioorg Med Chem Lett, 2018):
Values after ≈ are worked out from the molar mass of the structure shown. Active and inactive are the calls of the source. No cut-off for these calls is given here.

Key:
BXPC-3 = test: Cytotoxicity against human BxPC3 cells after 48 hrs by MTT assay; format: functional, cell-based; conditions: BXPC-3, 48 h
HeLa = test: Cytotoxicity against human HeLa cells after 48 hrs by MTT assay; format: functional, cell-based
LNCaP C4-2 = test: Cytotoxicity against human C4-2 cells after 48 hrs by MTT assay; format: functional, cell-based; conditions: LNCaP C4-2, 48 h
PC-3 = test: Cytotoxicity against human PC3 cells after 48 hrs by MTT assay; format: functional, cell-based; conditions: PC-3, 48 h
HEK-293T = test: Cytotoxicity against human HEK293T cells after 48 hrs by MTT assay; format: cell-based
MDA-MB-231 [1] = test: Cytotoxicity against human MDA-MB-231 cells after 48 hrs by MTT assay; format: functional, cell-based; conditions: MDA-MB-231, 48 h
NIH3T3 = test: Cytotoxicity against mouse NIH/3T3 cells after 48 hrs by MTT assay; format: cell-based; conditions: NIH3T3, 48 h
Bacillus subtilis [2] = test: Antibacterial activity against Bacillus subtilis MTCC 121 assessed as zone of inhibition measured after 18 hrs by disc diffusion method; format: functional
Bacillus subtilis [3] = test: Antibacterial activity against Bacillus subtilis MTCC 121 after 24 hrs by broth microdilution assay; format: functional; conditions: MTCC 121, 24 h
Staphylococcus aureus [4] = test: Antibacterial activity against Staphylococcus aureus MTCC 96 assessed as zone of inhibition measured after 18 hrs by disc diffusion method; format: functional
Staphylococcus aureus [5] = test: Antibacterial activity against Staphylococcus aureus MTCC 96 after 24 hrs by broth microdilution assay; format: functional; conditions: MTCC 96, 24 h
Enterobacter cloacae [6] = test: Antibacterial activity against Enterobacter cloacae NAIMCC-B-02025 assessed as zone of inhibition measured after 18 hrs by disc diffusion method; format: functional
Enterobacter cloacae [7] = test: Antibacterial activity against Enterobacter cloacae NAIMCC-B-02025 after 24 hrs by broth microdilution assay; format: functional; conditions: NAIMCC-B-02025, 24 h
Escherichia coli = test: Antibacterial activity against Escherichia coli MTCC 1652 assessed as zone of inhibition measured after 18 hrs by disc diffusion method; format: functional
Pseudomonas aeruginosa = test: Antibacterial activity against Pseudomonas aeruginosa MTCC 424 assessed as zone of inhibition measured after 18 hrs by disc diffusion method; format: functional
MDA-MB-231 [8] = test: Induction of apoptosis in human MDA-MB-231 cells assessed as morphological changes after 24 hrs by acridine orange/ethidium bromide-dual staining based fluorescence microscopic method; format: functional, cell-based

Row | SMILES | MIC (Bacillus subtilis [3]) | MIC (Staphylococcus aureus [5]) | MIC (Enterobacter cloacae [7]) | IC50 (BXPC-3) | IC50 (HeLa) | IC50 (LNCaP C4-2) | IC50 (PC-3) | IC50 (HEK-293T) | IC50 (MDA-MB-231 [1]) | IC50 (NIH3T3) | inhibition zone (IZ) (Bacillus subtilis [2]) | inhibition zone (IZ) (Staphylococcus aureus [4]) | inhibition zone (IZ) (Enterobacter cloacae [6]) | inhibition zone (IZ) (Escherichia coli) | inhibition zone (IZ) (Pseudomonas aeruginosa) | Activity (MDA-MB-231 [8])
1 | CCCC[n+]1ccc2c([nH]c3ccccc32)c1C(=O)/C=C/c1ccc2c(c1)OCO2.[Br-] | – | – | – | > 100 µM | > 100 µM | > 100 µM | > 100 µM | > 100 µM | > 100 µM | > 100 µM | 7 mm | 9 mm | – | – | – | –
2 | C#CC[n+]1ccc2c([nH]c3ccccc32)c1C(=O)/C=C/c1ccc(OC)cc1.[Br-] | – | – | – | > 100 µM | > 100 µM | > 100 µM | > 100 µM | > 100 µM | > 100 µM | > 100 µM | – | 9 mm | 6 mm | – | 7 mm | –
3 | O=C(N[C@H](CO)[C@H](O)c1ccc([N+](=O)[O-])cc1)C(Cl)Cl [CHLORAMPHENICOL] | 32 µM (≈ 10.3 µg/mL) | 17 µM (≈ 5.49 µg/mL) | 24 µM (≈ 7.76 µg/mL) | – | – | – | – | – | – | – | 22 mm | 22 mm | 20 mm | 22 mm | 21 mm | –
4 | COc1cccc2c1C(=O)c1c(O)c3c(c(O)c1C2=O)C[C@@](O)(C(=O)CO)C[C@@H]3O[C@H]1C[C@H](N)[C@H](O)[C@H](C)O1 [DOXORUBICIN] | – | – | – | 13.6 µM | – | 3.2 µM | 10.2 µM | 3.59 µM | 7.85 µM | 21.3 µM | – | – | – | – | – | Active
5 | O=C(/C=C/c1ccc2c(c1)OCO2)c1nccc2c1[nH]c1ccccc12 | – | – | – | > 100 µM | > 100 µM | > 100 µM | > 100 µM | > 100 µM | > 100 µM | > 100 µM | – | – | – | – | – | –
6 | C#CC[n+]1ccc2c([nH]c3ccccc32)c1C(=O)/C=C/c1cc(OC)c(OC)c(OC)c1.[Br-] | – | – | 590 µM | 72 µM | 70.1 µM | 65.5 µM | 61 µM | 55.1 µM | 59.6 µM | 88 µM | – | 9 mm | 13 mm | – | 9 mm | –
7 | CCCC[n+]1ccc2c([nH]c3ccccc32)c1C(=O)/C=C/c1cc(OC)c(OC)c(OC)c1.[Br-] | – | 812 µM | 806 µM | 25.1 µM | 35.6 µM | 39.6 µM | 40.1 µM | 34.4 µM | 32 µM | 68.6 µM | – | 10 mm | 10 mm | 8 mm | 12 mm | –
8 | CCCC[n+]1ccc2c([nH]c3ccccc32)c1C(=O)/C=C/c1ccc(OC)cc1.[Br-] | – | – | – | 50.8 µM | 45 µM | 38.8 µM | 65 µM | 35.2 µM | 40.9 µM | 74.6 µM | – | 9 mm | – | – | – | –
9 | O=C(/C=C/c1ccc2c(c1)OCO2)c1c2[nH]c3ccccc3c2cc[n+]1Cc1ccccc1.[Br-] | – | – | – | 55.3 µM | 45.2 µM | 42.1 µM | 79 µM | 55.1 µM | 48.2 µM | 82.2 µM | 6 mm | 7 mm | 8 mm | – | – | –
10 | C#CC[n+]1ccc2c([nH]c3ccccc32)c1C(=O)/C=C/c1ccc2c(c1)OCO2.[Br-] | – | – | – | 30.1 µM | 25.3 µM | 24.4 µM | 29.6 µM | 19.1 µM | 21.2 µM | 72.1 µM | 7 mm | 9 mm | 6 mm | – | 7 mm | –

Second part, led by results:

Row | MIC (Bacillus subtilis [3]) | MIC (Staphylococcus aureus [5]) | MIC (Enterobacter cloacae [7]) | SMILES | IC50 (BXPC-3) | IC50 (HeLa) | IC50 (LNCaP C4-2) | IC50 (PC-3) | IC50 (HEK-293T) | IC50 (MDA-MB-231 [1]) | IC50 (NIH3T3) | inhibition zone (IZ) (Bacillus subtilis [2]) | inhibition zone (IZ) (Staphylococcus aureus [4]) | inhibition zone (IZ) (Enterobacter cloacae [6]) | inhibition zone (IZ) (Escherichia coli) | inhibition zone (IZ) (Pseudomonas aeruginosa) | Activity (MDA-MB-231 [8])
11 | 838 µM (≈ 250 µg/mL) | – | – | O=C(/C=C/c1ccccc1)c1nccc2c1[nH]c1ccccc12 | 72 µM | 82.4 µM | 80.2 µM | 93 µM | 65.6 µM | 71.1 µM | > 100 µM | 9 mm | – | – | – | – | –
12 | – | 710 µM (≈ 260 µg/mL) | 726 µM (≈ 266 µg/mL) | O=C(/C=C/c1ccc(C(F)(F)F)cc1)c1nccc2c1[nH]c1ccccc12 | – | – | – | – | – | – | – | – | 11 mm | 11 mm | 10 mm | – | –
13 | 870 µM (≈ 297 µg/mL) | 715 µM (≈ 244 µg/mL) | 880 µM (≈ 300 µg/mL) | CN(C)c1ccc(/C=C/C(=O)c2nccc3c2[nH]c2ccccc23)cc1 | – | – | – | – | – | – | – | 8 mm | 11 mm | 8 mm | 8 mm | – | –
14 | – | – | 726 µM | COc1cc(/C=C/C(=O)c2c3[nH]c4ccccc4c3cc[n+]2Cc2ccccc2)cc(OC)c1OC.[Br-] | 20 µM | 22.1 µM | 16.1 µM | 22 µM | 17.2 µM | 16 µM | 55.2 µM | 7 mm | 9 mm | 12 mm | – | – | Active
15 | 875 µM | 440 µM | 874 µM | COc1ccc(/C=C/C(=O)c2c3[nH]c4ccccc4c3cc[n+]2Cc2ccccc2)cc1.[Br-] | 50.2 µM | 60.1 µM | 65.5 µM | 88.3 µM | 41.4 µM | 52.2 µM | 85.3 µM | 8 mm | 15 mm | 8 mm | 8 mm | – | –
16 | 885 µM (≈ 291 µg/mL) | 733 µM (≈ 241 µg/mL) | 846 µM (≈ 278 µg/mL) | COc1ccc(/C=C/C(=O)c2nccc3c2[nH]c2ccccc23)cc1 | > 100 µM | > 100 µM | > 100 µM | > 100 µM | > 100 µM | > 100 µM | > 100 µM | 8 mm | 12 mm | 9 mm | – | 8 mm | –
17 | 720 µM (≈ 225 µg/mL) | 820 µM (≈ 256 µg/mL) | 828 µM (≈ 259 µg/mL) | Cc1ccc(/C=C/C(=O)c2nccc3c2[nH]c2ccccc23)cc1 | > 100 µM | > 100 µM | > 100 µM | > 100 µM | > 100 µM | > 100 µM | > 100 µM | 12 mm | 10 mm | 10 mm | – | – | –
18 | – | > 900 µM | 834 µM (≈ 324 µg/mL) | COc1cc(/C=C/C(=O)c2nccc3c2[nH]c2ccccc23)cc(OC)c1OC | 70.8 µM | 75.2 µM | 71.6 µM | > 100 µM | 82.1 µM | 71.5 µM | > 100 µM | – | 7 mm | 10 mm | – | – | –
